≈ marks a conversion by molar mass, not a printed value.
What was measured:
Edaphon = Edaphon toxicity test (Test Guidelines on Environmental Safety Assessment for Chemical Pesticides); conditions: 15 d; 100 times of usual dose (simulative usual dose 40 ppm); cell adds 'low toxicity'
Description: (§1) According to the earthworm and edaphon toxicity test procedures as prescribed in the Test Guidelines on Environmental Safety Assessment for Chemical Pesticides, earthworm and edaphon toxicity tests are conducted on compounds 1 to 60 from Table 1. The simulative usual dose of pesticide in the edaphon test is 40 ppm.

Earthworm = Earthworm toxicity test (Test Guidelines on Environmental Safety Assessment for Chemical Pesticides); format: in vivo; conditions: cell adds 'low toxicity'
Description: as §1

Nematode eggs = test: Plant pathogenic nematode inhibition test by dipping: nematode egg hatch inhibition (NY/T 1154.5-2006); format: in vivo
Description: A plant pathogenic nematode inhibition test is conducted by dipping with the compounds in Table 1; and by referring to NY/T 1154.5-2006 (Part 5: Dipping Test for Insecticide Ovicidal Activity), the nematode egg hatch inhibition activity of the compounds is tested, as shown in Table 2: […]

Nematode J2 = test: Plant pathogenic nematode inhibition test by dipping: second-stage juveniles; format: in vivo
[1] = Test object: nematode eggs, dipping
[2] = Test object: nematode J2 (second-stage juveniles), dipping

Row | SMILES | Edaphon Toxicity (15 d) (Inhibition ratio when added amount is 100 times of usual dose) (Edaphon) | Earthworm Toxicity LC50 (14 d) (Earthworm) | LC50 (Nematode eggs; in vivo) | LC50 (Nematode J2; in vivo) | LC50 (Nematode eggs; [1]) | LC50 (Nematode J2; [2])
1 | O=C1CC(C(=O)OCCC(F)=C(F)F)C(c2c(F)c(F)c(F)c(F)c2F)O1 (stereo not shown) [Compound 29] | <50%, low toxicity | >10, low toxicity mg/L | 12.24 µg/mL (≈ 30.3 µM) | 13.86 µg/mL (≈ 34.3 µM) |  | 
2 | O=C1CC(C(=O)OCCC(F)=C(F)F)C(c2c(F)cccc2Cl)O1 (stereo not shown) [Compound 16] | <50%, low toxicity | >10, low toxicity mg/L | 10.91 µg/mL (≈ 29.8 µM) | 12.25 µg/mL (≈ 33.4 µM) |  | 
3 | O=C1CC(C(=O)OCCC(F)=C(F)F)C(c2ccccc2F)O1 (stereo not shown) [Compound 19] | <50%, low toxicity | >10, low toxicity mg/L | 15.21 µg/mL (≈ 45.8 µM) | 17.24 µg/mL (≈ 51.9 µM) |  | 
4 | CCCc1ccc(C2OC(=O)CC2C(=O)OCCC(F)=C(F)F)cc1 (stereo not shown) [Compound 5] | <50%, low toxicity | >10, low toxicity mg/L | 8.02 µg/mL (≈ 22.5 µM) | 9.777 µg/mL (≈ 27.4 µM) |  | 
5 | O=C1CC(C(=O)OCCC(F)=C(F)F)C(c2cccc(Oc3cccc(C(F)(F)F)c3)c2)O1 (stereo not shown) [Compound 52] | <50%, low toxicity | >10, low toxicity mg/L | 10.12 µg/mL (≈ 21.3 µM) | 13.28 µg/mL (≈ 28 µM) |  | 
6 | O=C1CC(C(=O)OCCC(F)=C(F)F)C(c2cccc(Cl)c2Cl)O1 (stereo not shown) [Compound 8] | <50%, low toxicity | >10, low toxicity mg/L | 12.81 µg/mL (≈ 33.4 µM) | 13.14 µg/mL (≈ 34.3 µM) |  | 
7 | O=C1CC(C(=O)OCCC(F)=C(F)F)C(c2ccccc2OC(F)(F)F)O1 (stereo not shown) [Compound 41] | <50%, low toxicity | >10, low toxicity mg/L | 11.41 µg/mL (≈ 28.6 µM) | 13.86 µg/mL (≈ 34.8 µM) |  | 
8 | O=C1CC(C(=O)OCCC(F)=C(F)F)C(c2ccc(C(F)(F)F)cc2F)O1 (stereo not shown) [Compound 32] | <50%, low toxicity | >10, low toxicity mg/L | 12.14 µg/mL (≈ 30.3 µM) | 13.23 µg/mL (≈ 33.1 µM) |  | 
9 | O=C1CC(C(=O)OCCC(F)=C(F)F)C(c2cc(F)cc(Cl)c2)O1 (stereo not shown) [Compound 24] | <50%, low toxicity | >10, low toxicity mg/L |  |  | 10.91 µg/mL (≈ 29.8 µM) | 12.24 µg/mL (≈ 33.4 µM)
10 | O=C1CC(C(=O)OCCC(F)=C(F)F)C(c2ccc(Cl)cc2F)O1 (stereo not shown) [Compound 21] | <50%, low toxicity | >10, low toxicity mg/L | 11.98 µg/mL (≈ 32.7 µM) | 13.74 µg/mL (≈ 37.5 µM) |  | 
11 | O=C1CC(C(=O)OCCC(F)=C(F)F)C(c2ccc(Br)cc2F)O1 (stereo not shown) [Compound 25] | <50%, low toxicity | >10, low toxicity mg/L |  |  | 13.91 µg/mL (≈ 33.8 µM) | 15.74 µg/mL (≈ 38.3 µM)
12 | Cc1ccccc1C1OC(=O)CC1C(=O)OCCC=C(F)F (stereo not shown) [Compound 2] | <50%, low toxicity | >10, low toxicity mg/L | 9.81 µg/mL (≈ 31.6 µM) | 10.14 µg/mL (≈ 32.7 µM) |  | 
13 | COc1ccc(C2OC(=O)CC2C(=O)OCCC(F)=C(F)F)cc1 (stereo not shown) [Compound 39] | <50%, low toxicity | >10, low toxicity mg/L | 11.85 µg/mL (≈ 34.4 µM) | 13.40 µg/mL (≈ 38.9 µM) |  | 
14 | O=C1CC(C(=O)OCCC(F)=C(F)F)C(c2ccc(F)cc2)O1 (stereo not shown) [Compound 20] | <50%, low toxicity | >10, low toxicity mg/L | 10.143 µg/mL (≈ 30.5 µM) | 12.532 µg/mL (≈ 37.7 µM) |  | 
15 | COc1ccc(C2OC(=O)CC2C(=O)OCCC(F)=C(F)F)c(C(F)(F)F)c1 (stereo not shown) [Compound 42] | <50%, low toxicity | >10, low toxicity mg/L | 12.39 µg/mL (≈ 30.1 µM) | 10.40 µg/mL (≈ 25.2 µM) |  | 
16 | O=C1CC(C(=O)OCCC(F)=C(F)F)C(c2cc(F)ccc2F)O1 (stereo not shown) [Compound 28] | <50%, low toxicity | >10, low toxicity mg/L | 13.23 µg/mL (≈ 37.8 µM) | 15.07 µg/mL (≈ 43 µM) |  | 
17 | COc1ccccc1C1OC(=O)CC1C(=O)OCCC=C(F)F (stereo not shown) [Compound 34] | <50%, low toxicity | >10, low toxicity mg/L |  |  | 12.42 µg/mL (≈ 38.1 µM) | 13.10 µg/mL (≈ 40.1 µM)
18 | O=C1CC(C(=O)OCCC(F)=C(F)F)C(c2c(Cl)cccc2Cl)O1 (stereo not shown) [Compound 11] | <50%, low toxicity | >10, low toxicity mg/L | 13.30 µg/mL (≈ 34.7 µM) | 14.95 µg/mL (≈ 39 µM) |  | 
19 | CCOc1ccc(C2OC(=O)CC2C(=O)OCCC(F)=C(F)F)cc1 (stereo not shown) [Compound 44] | <50%, low toxicity | >10, low toxicity mg/L | 10.23 µg/mL (≈ 28.6 µM) | 13.12 µg/mL (≈ 36.6 µM) |  | 
20 | O=C1CC(C(=O)OCCC(F)=C(F)F)C(c2ccc(Cl)cc2)O1 (stereo not shown) [Compound 15] | <50%, low toxicity | >10, low toxicity mg/L | 11.88 µg/mL (≈ 34.1 µM) | 12.69 µg/mL (≈ 36.4 µM) |  | 
21 | COc1c(F)cc(C2OC(=O)CC2C(=O)OCCC(F)=C(F)F)cc1F (stereo not shown) [Compound 33] | <50%, low toxicity | >10, low toxicity mg/L | 12.08 µg/mL (≈ 31.8 µM) | 13.37 µg/mL (≈ 35.2 µM) |  | 
22 | COc1cccc(C2OC(=O)CC2C(=O)OCCC=C(F)F)c1 (stereo not shown) [Compound 36] | <50%, low toxicity | >10, low toxicity mg/L | 11.24 µg/mL (≈ 34.4 µM) | 12.64 µg/mL (≈ 38.7 µM) |  | 
23 | O=C1CC(C(=O)OCCC(F)=C(F)F)C(c2ccc(Cl)cc2Cl)O1 (stereo not shown) [Compound 9] | <50%, low toxicity | >10, low toxicity mg/L | 10.36 µg/mL (≈ 27 µM) | 13.14 µg/mL (≈ 34.3 µM) |  | 
24 | O=C1CC(C(=O)OCCC=C(F)F)C(c2ccccc2OC(F)(F)F)O1 (stereo not shown) [Compound 40] | <50%, low toxicity | >10, low toxicity mg/L | 10.04 µg/mL (≈ 26.4 µM) | 13.40 µg/mL (≈ 35.2 µM) |  | 
25 | O=C1CC(C(=O)OCCC(F)=C(F)F)C(c2cc(F)cc(Br)c2)O1 (stereo not shown) [Compound 22] | <50%, low toxicity | >10, low toxicity mg/L | 9.57 µg/mL (≈ 23.3 µM) | 10.85 µg/mL (≈ 26.4 µM) |  | 
26 | O=C1CC(C(=O)OCCC(F)=C(F)F)C(c2cc(Cl)cc(Cl)c2Cl)O1 (stereo not shown) [Compound 12] | <50%, low toxicity | >10, low toxicity mg/L | 12.30 µg/mL (≈ 29.5 µM) | 13.35 µg/mL (≈ 32 µM) |  | 
27 | N#Cc1ccc(C2OC(=O)CC2C(=O)OCCC(F)=C(F)F)cc1 (stereo not shown) [Compound 49] | <50%, low toxicity | >10, low toxicity mg/L | 10.36 µg/mL (≈ 30.5 µM) | 11.35 µg/mL (≈ 33.5 µM) |  | 
28 | CCc1ccc(C2OC(=O)CC2C(=O)OCCC=C(F)F)cc1 (stereo not shown) [Compound 4] | <50%, low toxicity | >10, low toxicity mg/L | 10.25 µg/mL (≈ 31.6 µM) | 10.24 µg/mL (≈ 31.6 µM) |  | 

— US10111428B2, “Nematocide containing lactonic ring and preparation method and application thereof” (priority 2015, dated 2018)
